In brackets after ≈: the same amount, converted by molar mass. Where two headings read alike, the source gives them in different places.
Experiments:
[1] = tested on: Escherichia coli ATCC 47076; assay: Antibacterial MIC, microdilution susceptibility test (CLSI); format: cell-based
Source text: (§1) The synthesized linezolid conjugates (3a–k, 5a–f, 7a–c, 9a–c, 11a–f, 13, and 15) were subjected for antimicrobial properties determination against Gram-positive (Staphylococcus aureus ATCC 6538, Bacillus subtilis ATCC 6633) and Gram-negative (Pseudomonas aeruginosa ATCC 15692, Escherichia coli ATCC 47076) bacteria by the standard technique.
(§2) Antibacterial properties of the synthesized compounds (3a–k, 5a–f, 7a–c, 9a–c, 11a–f, 13 and 15) were screened against Gram-positive (Staphylococcus aureus ATCC 6538, Bacillus subtilis ATCC 6633) and Gram-negative (Pseudomonas aeruginosa ATCC 15,692 and Escherichia coli ATCC 47076) bacteria utilizing the standard technique. Linezolid was used as a standard reference/drug in the current study. The tested bacterial strains were obtained from MERCIN Center, Faculty of Agriculture, Ain Shams University, Cairo, Egypt.
(§3) To determine the antibacterial activity, stock solutions of the tested compounds and standard reference were prepared with up to 100% DMSO and stored at […]. If necessary, the solutions were heated to 40–60 °C before testing to facilitate complete dissolution. Double distilled water was used in all dilutions prepared. […] A microdilution susceptibility test was used for MIC determination (Mueller–Hinton broth in 96-well plates) according to the CLSI (the Clinical and Laboratory Standards Institute, Malvern, PA, USA). The bacterial inoculum was adjusted to approximately 2.5–3 × 10^4 cells/mL in Mueller–Hinton broth and incubated in a ratio of 1:1 with the test derivatives in polystyrene 96-well flat-bottom microplates. Positive growth control (without test derivatives) and negative control (without bacteria) were included. The microplates were placed in an incubator set to 37 °C for 24 h. Absorbance was measured at 620 nm at the end of the incubation period. The cut-off level for follow-up studies was defined as a minimum of 90% inhibition of growth compared to the untreated sample. Experiments were conducted once in triplicate. For selected compounds, minimum inhibitory concentration (MIC) values were determined by dose–response experiments. Experiments were performed at least twice, in triplicate per concentration tested.

[2] = tested on: Staphylococcus aureus ATCC 6538; assay: as above; format: cell-based; conditions: Staphylococcus aureus, ATCC6538, 24 h, Mueller–Hinton broth, 37 °C, 24 h; read-out: MIC, μg/mL ± SE, S. Aureus (ATCC 6538)
Source text: as §1, §2, §3

[3] = tested on: Bacillus subtilis ATCC 6633; assay: as above; format: cell-based; conditions: Bacillus subtilis, ATCC6633, 24 h, Mueller–Hinton broth, 37 °C, 24 h; read-out: MIC, μg/mL ± SE, B. Subtilis (ATCC 6633)
Source text: as §1, §2, §3

[4] = tested on: Pseudomonas aeruginosa ATCC 15692; assay: as above; format: cell-based
Source text: as §1, §2, §3

[5] = tested on: Staphylococcus aureus ATCC 6538; assay: microbe, parasite or virus in culture; design: species or system bacteria; Broth microdilution MIC in Mueller-Hinton broth, absorbance at 620 nm; conditions: ATCC6538, 24 h, read-out: Observed MIC, uM (S. aureus)
Source text: as §3, with “Antibacterial properties of the synthesized compounds (3a–k, 5a–f, 7a–c, 9a–c, 11a–f, 13 and 15) were screened against Gram-positive (Staphylococcus aureus ATCC 6538, Bacillus subtilis ATCC 6633) and Gram-negative (Pseudomonas aeruginosa ATCC 15,692 and Escherichia coli ATCC 47076) bacteria utilizing the standard technique. Linezolid was used as a standard reference/drug in the current study. The tested bacterial strains were obtained from MERCIN Center, Faculty of Agriculture, Ain Shams University, Cairo, Egypt. To” for “To”

[6] = tested on: Bacillus subtilis ATCC 6633; assay: microbe, parasite or virus in culture; design: species or system bacteria; Broth microdilution MIC in Mueller-Hinton broth, absorbance at 620 nm; conditions: ATCC6633, 24 h, read-out: Observed MIC, uM (B. subtilis)
Source text: as §3, with “Antibacterial properties of the synthesized compounds (3a–k, 5a–f, 7a–c, 9a–c, 11a–f, 13 and 15) were screened against Gram-positive (Staphylococcus aureus ATCC 6538, Bacillus subtilis ATCC 6633) and Gram-negative (Pseudomonas aeruginosa ATCC 15,692 and Escherichia coli ATCC 47076) bacteria utilizing the standard technique. Linezolid was used as a standard reference/drug in the current study. The tested bacterial strains were obtained from MERCIN Center, Faculty of Agriculture, Ain Shams University, Cairo, Egypt. To” for “To”

[7] = ATCC47076, Mueller–Hinton broth, 37 °C, 24 h, read-out: MIC, μg/mL ± SE, E. Coli (ATCC 47076)
[8] = ATCC47076, value in parentheses, read-out: MIC (μmol), E. Coli (ATCC 47076) (converted)
[9] = ATCC15692, Mueller–Hinton broth, 37 °C, 24 h, read-out: MIC, μg/mL ± SE, P. Aeruginosa (ATCC 15692)
[10] = ATCC15692, value in parentheses, read-out: MIC (μmol), P. Aeruginosa (ATCC 15692) (converted)

Row | Structure (SMILES) | melting point [°C] | MIC [1, 7] [µg/mL] | MIC [1, 8] [µM] | MIC [2] [µg/mL] | MIC [3] [µg/mL] | MIC [4, 9] [µg/mL] | MIC [4, 10] [µM] | MIC [5] [µM] | MIC [6] [µM]
1 | O=C(NC[C@H]1CN(c2ccc(N3CCOCC3)c(F)c2)C(=O)O1)c1cnccn1 [Compound 7c, (S)-N-((3-(3-Fluoro-4-morpholinophenyl)-2-oxooxazolidin-5-yl)methyl)pyrazine-2-carboxamide] | 190 to 192 | 32 ± 0.7 | 79.7 | 8 ± 0.1 (≈ 19.9 µM) | 2 ± 0.1 (≈ 4.98 µM) | 32 ± 1.1 | 79.7 | 19.9 (≈ 8 µg/mL) | 4.98 (≈ 2 µg/mL)
2 | CC(C)C[C@H](NC(=O)c1cnccn1)C(=O)NC[C@H]1CN(c2ccc(N3CCOCC3)c(F)c2)C(=O)O1 [Compound 9a, N-((S)-1-((((S)-3-(3-Fluoro-4-morpholinophenyl)-2-oxooxazolidin-5-yl)methyl)amino) -4-methyl-1-oxopentan-2-yl)pyrazine-2-carboxamide] | 90 to 92 | 32 ± 1.6 | 62.2 | 32 ± 0.4 (≈ 62.2 µM) | 32 ± 2 (≈ 62.2 µM) | 32 ± 1.3 | 62.2 | 62.2 (≈ 32 µg/mL) | 62.2 (≈ 32 µg/mL)
3 | CC(C)[C@H](NC(=O)c1cnccn1)C(=O)NC[C@H]1CN(c2ccc(N3CCOCC3)c(F)c2)C(=O)O1 [Compound 9b, N-((S)-1-((((S)-3-(3-Fluoro-4-morpholinophenyl)-2-oxooxazolidin-5-yl)methyl)amino) -3-methyl-1-oxobutan-2-yl)pyrazine-2-carboxamide] | 94 to 96 | 32 ± 3.4 | 63.9 | 32 ± 1.7 (≈ 63.9 µM) | 32 ± 1.3 (≈ 63.9 µM) | 32 ± 2.5 | 63.9 | 63.9 (≈ 32 µg/mL) | 63.9 (≈ 32 µg/mL)
4 | O=C(N[C@@H](Cc1ccccc1)C(=O)NC[C@H]1CN(c2ccc(N3CCOCC3)c(F)c2)C(=O)O1)c1cnccn1 [Compound 9c, N-((S)-1-((((S)-3-(3-Fluoro-4-morpholinophenyl)-2-oxooxazolidin-5-yl)methyl)amino) -1-oxo-3-phenylpropan-2-yl)pyrazine-2-carboxamide] | 172 to 174 | 32 ± 1 | 58.3 | 32 ± 0.9 (≈ 58.3 µM) | 32 ± 0.5 (≈ 58.3 µM) | 32 ± 0.8 | 58.3 | 58.3 (≈ 32 µg/mL) | 58.3 (≈ 32 µg/mL)
5 | O=C1O[C@@H](CNCc2ccc(F)cc2F)CN1c1ccc(N2CCOCC2)c(F)c1 [Compound 11e, (S)-5-[{(2,4-Difluorobenzyl)amino}methyl]-3-(3-fluoro-4-morpholinophenyl) oxazolid-ine-2-one] | 74 to 76 | 32 ± 0.3 | 75.9 | 32 ± 0.2 (≈ 75.9 µM) | 32 ± 1.3 (≈ 75.9 µM) | 32 ± 0.5 | 75.9 | 75.9 (≈ 32 µg/mL) | 75.9 (≈ 32 µg/mL)
6 | O=C(CCCC[C@@H]1SC[C@@H]2NC(=O)N[C@@H]21)NC[C@H]1CN(c2ccc(N3CCOCC3)c(F)c2)C(=O)O1 [Compound 15, N-(((S)-3-(3-Fluoro-4-morpholinophenyl)-2-oxooxazolidin-5-yl)methyl)-5-((3aS, 4S, 6aR)-2-oxohexahydro-1H-thieno [3,4-d]imidazol-4-yl)pentanamide] | 222 to 224 | 32 ± 0.7 | 61.3 | 32 ± 0.4 (≈ 61.3 µM) | 32 ± 0.2 (≈ 61.3 µM) | 32 ± 0.3 | 61.3 | 61.3 (≈ 32 µg/mL) | 61.3 (≈ 32 µg/mL)

— article PMC8880098, “Synthesis, Antibacterial Evaluation, and Computational Studies of a Diverse Set of Linezolid Conjugates” (Pharmaceuticals, 2022)
